Experimental data taken from the supplement of paper PMC10307832.

Columns and labels:
Assay in all cases: relative viability (nuclei count vs DMSO), 5 days (fraction); higher = more cells survive
[1] = compound: COc1cc2ncn(-c3cc(OCc4ccccc4C(F)(F)F)c(C(N)=O)s3)c2cc1OC + N=C(N)NC(=N)NCCc1ccccc1 [Phenformin] (partner 250 µM)
Method in brief: (§1)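 Each reported value is a median over duplicate plates. It expresses relative viability: treated-well nuclei count divided by vehicle-well nuclei count. Lung cancer cell lines in 1536-well plates were dosed by pin tool a day after seeding, alone with one drug or with a fixed anchor-drug dose plus five library-drug doses (not always all listed) in √10 steps, and nuclei were counted after 5 days.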

[2] = compound: COc1cc2ncn(-c3cc(OCc4ccccc4C(F)(F)F)c(C(N)=O)s3)c2cc1OC + CC(=O)c1c(C)c2cnc(Nc3ccc(N4CCNCC4)cn3)nc2n(C2CCCC2)c1=O [Palbociclib] (partner 0.5 µM)
Method in brief: as §1

[3] = compound: COc1cc2ncn(-c3cc(OCc4ccccc4C(F)(F)F)c(C(N)=O)s3)c2cc1OC + Nc1ncn([C@H]2C[C@H](O)[C@@H](CO)O2)c(=O)n1 [Decitabine] (partner 2 µM)
Method in brief: as §1

[4] = compound: COc1cc2ncn(-c3cc(OCc4ccccc4C(F)(F)F)c(C(N)=O)s3)c2cc1OC + CS(=O)(=O)N1CCN(Cc2cc3nc(-c4cccc5[nH]ncc45)nc(N4CCOCC4)c3s2)CC1 [Pictilisib] (partner 1 µM)
Method in brief: as §1

Cell Line	relative viability ([1]; first compound 0.05 µM)	relative viability ([1]; first compound 0.1581 µM)	relative viability ([1]; first compound 0.5 µM)	relative viability ([1]; first compound 1.581 µM)	relative viability ([1]; first compound 5 µM)	relative viability ([2]; first compound 0.05 µM)	relative viability ([2]; first compound 0.1581 µM)	relative viability ([2]; first compound 0.5 µM)	relative viability ([2]; first compound 1.581 µM)	relative viability ([2]; first compound 5 µM)	relative viability ([3]; first compound 0.05 µM)	relative viability ([3]; first compound 0.1581 µM)	relative viability ([3]; first compound 0.5 µM)	relative viability ([3]; first compound 1.581 µM)	relative viability ([3]; first compound 5 µM)	relative viability ([4]; first compound 0.05 µM)	relative viability ([4]; first compound 0.1581 µM)	relative viability ([4]; first compound 0.5 µM)	relative viability ([4]; first compound 1.581 µM)	relative viability ([4]; first compound 5 µM)
NCI-H441	0.837	0.636	0.196	0.196	0.227	0.243	0.255	0.172	0.125	0.147	0.229	0.243	0.18	0.137	0.164	0.652	0.352	0.163	0.13	0.131
SW 1573	0.232	0.413	0.143	0.103	0.0927	0.355	0.432	0.177	0.123	0.127	0.572	0.413	0.223	0.0976	0.126	0.529	0.377	0.367		0.176
BEN	0.262	0.28	0.217	0.218	0.206	0.5	0.455	0.471	0.45	0.437	0.816	0.828	0.526	0.403	0.408	0.653	0.557	0.471	0.223	0.233
LC-2-ad	0.527	0.578	0.313	0.274	0.316	0.457	0.422	0.401	0.237	0.194	0.824	0.761	0.63	0.203	0.2	0.383	0.108	0.0797	0.0935	0.0834
COR-L23	0.464	0.385	0.201	0.104	0.0889	0.27	0.335	0.22	0.119	0.111	0.435	0.394	0.305	0.145	0.159	0.876	0.9	0.533	0.0929	0.0905
NCI-H1650	0.389	0.341	0.175	0.129	0.179	0.295	0.329	0.234	0.146	0.141	0.396	0.382	0.329	0.219	0.138	0.52	0.615	0.322	0.156	0.146
SK-LU-1	0.563	0.519	0.216	0.163	0.15	0.404	0.355	0.349	0.212	0.214	0.663	0.487	0.494	0.317	0.304	0.568	0.516	0.423	0.213	0.178
NCI-H1915	0.373	0.361	0.286	0.0964	0.0866	0.456	0.493	0.347	0.114	0.0905	0.249	0.261	0.228	0.143	0.0992	0.988	0.857	0.799	0.111	0.0806
NCI-H647	0.537	0.509	0.101	0.0685	0.069	0.436	0.39	0.174	0.0732	0.077	0.381	0.275	0.168	0.131	0.107	0.441	0.425	0.413	0.0779	0.057
NCI-H2009	0.436	0.333	0.192	0.124	0.111	0.191	0.203	0.188	0.178	0.127	0.344	0.301	0.259	0.197	0.17	0.783	0.417	0.325	0.166	0.152
NCI-H2126	0.481	0.579	0.367	0.265	0.261	0.373	0.31	0.348	0.273	0.265	0.571	0.605	0.556	0.261	0.227	0.462	0.517	0.477	0.254	0.229
LXF-289	0.437	0.466	0.256	0.0678	0.0402	0.607	0.57	0.481	0.233	0.107	0.434	0.363	0.274	0.129	0.108	0.789	0.752	0.447	0.0857	0.0529
HCC-44	0.193	0.164	0.106	0.0862	0.118	1.02	1.01	0.925	0.383	0.35	0.987	0.984	0.906	0.433	0.258	0.76	0.601	0.632	0.104	0.11
PC-3 [JPC-3]	0.494	0.501	0.381	0.184	0.187	0.568	0.541	0.534	0.435	0.429	0.779	0.842	0.653	0.396	0.43	0.728	0.78	0.611	0.327	0.26
HOP-62	0.67	0.664	0.53	0.15	0.108	0.411	0.417	0.403	0.148	0.107	0.227	0.266	0.237	0.186	0.141	0.753	0.805	0.566	0.123	0.0836
NCI-H358	0.3	0.321	0.162	0.0752	0.0692	0.139	0.126	0.11	0.0792	0.0843	0.228	0.179	0.219	0.115	0.138	0.362	0.347	0.293	0.148	0.14
SK-MES-1	0.559	0.636	0.234	0.197	0.121	0.298	0.281	0.264	0.192	0.199	0.371	0.393	0.273	0.166	0.172	0.343	0.414	0.292	0.132	0.213

Cell Line	relative viability ([1]; first compound 0.05 µM)	relative viability ([1]; first compound 0.1581 µM)	relative viability ([1]; first compound 0.5 µM)	relative viability ([1]; first compound 1.581 µM)	relative viability ([1]; first compound 5 µM)	relative viability ([2]; first compound 0.05 µM)	relative viability ([2]; first compound 0.1581 µM)	relative viability ([2]; first compound 0.5 µM)	relative viability ([2]; first compound 1.581 µM)	relative viability ([2]; first compound 5 µM)	relative viability ([3]; first compound 0.05 µM)	relative viability ([3]; first compound 0.1581 µM)	relative viability ([3]; first compound 0.5 µM)	relative viability ([3]; first compound 1.581 µM)	relative viability ([3]; first compound 5 µM)	relative viability ([4]; first compound 0.05 µM)	relative viability ([4]; first compound 0.1581 µM)	relative viability ([4]; first compound 0.5 µM)	relative viability ([4]; first compound 1.581 µM)	relative viability ([4]; first compound 5 µM)
NCI-H1666	0.591	0.554	0.337	0.315	0.299	0.631	0.637	0.597	0.414	0.445	0.749	0.719	0.693	0.501	0.424	0.404	0.38	0.332	0.188	0.193
NCI-H1355	0.453	0.434	0.358	0.17	0.161	0.271	0.423	0.345	0.186	0.152	0.29	0.333	0.282	0.187	0.169	0.499	0.399	0.385	0.182	0.151
HCC-827	0.468	0.426	0.33	0.22	0.181	0.442	0.391	0.486	0.424	0.217	0.344	0.346	0.328	0.234	0.28	0.917	1.13	0.968	0.77	0.56
HARA	0.469	0.395	0.364	0.0656	0.0542	0.224	0.251	0.234	0.173	0.127	0.383		0.367	0.202	0.118	0.443	0.38	0.274	0.0824	0.0556
HCC-366	0.612	0.534	0.301	0.0215	0.0222	0.136	0.372	0.248	0.0295	0.0149	0.255	0.372	0.326	0.0359	0.0203	0.149	0.12	0.0681	0.0359	0.015
NCI-H322M	0.739	0.869	0.631	0.363	0.303	0.519	0.511	0.457	0.429	0.484	0.676	0.73	0.581	0.446	0.415	0.549	0.505	0.556	0.384	0.318
NCI-H2347	0.361	0.374	0.493	0.353	0.277	0.373	0.413	0.397	0.377	0.375	0.556	0.589	0.531	0.499	0.482	0.689	0.435	0.503	0.394	0.375
NCI-H1975	0.44	0.392	0.229	0.162	0.113	0.613	0.33	0.193	0.198	0.148	0.359	0.302	0.27	0.153	0.142	0.285	0.324	0.257	0.133	0.157
ABC-1	0.239	0.255	0.226	0.172	0.181	0.665	0.777	0.748	0.583	0.37	1.21	1.18	0.761	0.513	0.357	0.645	0.791	0.634	0.284	0.229
A-427	0.336	0.277	0.25	0.151	0.0968	0.553	0.479	0.502	0.331	0.236	0.619	0.6	0.498	0.399	0.205	0.76	0.527	0.729	0.262	0.117
LCLC-97TM1	0.398	0.492	0.353	0.154	0.148	0.216	0.191	0.17	0.0856	0.111	0.246	0.238	0.196	0.139	0.114	0.203	0.2	0.123	0.134	0.125
HCC-15	0.486	0.383	0.204	0.122	0.0883	0.729	0.702	0.519	0.167	0.141	0.592	0.581	0.248	0.176	0.119	0.69	0.707	0.549	0.163	0.125
NCI-H650	0.511	0.458	0.374	0.171	0.205	0.301	0.335	0.279	0.188	0.34	0.329	0.309	0.261	0.175	0.236	0.959	0.781	0.642	0.224	0.396
UMC-11	0.271	0.201	0.158	0.173	0.168	0.331	0.35	0.258	0.256	0.224	0.309	0.595	0.265	0.253	0.251	0.727	0.81	0.226	0.149	0.121
NCI-H1651	0.318	0.304	0.132	0.102	0.117	0.535	0.492	0.481	0.484	0.397	0.619	0.64	0.463	0.192	0.263	0.662	0.7	0.616	0.111	0.102
NCI-H1792	0.324	0.279	0.256	0.0695	0.0567	0.728	0.631	0.568	0.377	0.332	0.503	0.65	0.411	0.0575	0.0384	0.278	0.254	0.158	0.0865	0.109
